{"source": "paper PMC6716773", "about": "(Journal of Medicinal Chemistry, 2018)", "key": {"[1]": {"target": "T1, human recombinant MAO-B (Homo sapiens, UniProt P27338)", "T1 sequence (P27338 1-520)": "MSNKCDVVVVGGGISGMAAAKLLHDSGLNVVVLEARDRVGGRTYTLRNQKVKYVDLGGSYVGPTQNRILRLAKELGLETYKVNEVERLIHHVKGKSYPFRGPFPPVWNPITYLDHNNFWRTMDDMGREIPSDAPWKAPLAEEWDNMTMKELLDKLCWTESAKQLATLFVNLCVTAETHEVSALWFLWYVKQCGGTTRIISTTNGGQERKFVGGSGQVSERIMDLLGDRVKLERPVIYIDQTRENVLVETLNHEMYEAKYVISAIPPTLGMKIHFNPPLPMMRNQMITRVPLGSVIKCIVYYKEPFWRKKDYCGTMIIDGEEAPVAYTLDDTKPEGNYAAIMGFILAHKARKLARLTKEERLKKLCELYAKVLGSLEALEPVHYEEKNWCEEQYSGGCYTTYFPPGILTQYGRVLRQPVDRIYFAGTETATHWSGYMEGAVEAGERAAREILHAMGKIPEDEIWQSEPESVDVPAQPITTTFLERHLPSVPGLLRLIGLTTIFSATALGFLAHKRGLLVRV", "assay": "MAO-B enzyme assay", "assay_type": "biochemical", "settings": "Triton X-100, 0.01%; colloidal aggregation control"}, "[2]": {"target": "A2A adenosine receptor (A2AAR) (Homo sapiens, UniProt P29274)", "sequence (P29274 whole entry)": "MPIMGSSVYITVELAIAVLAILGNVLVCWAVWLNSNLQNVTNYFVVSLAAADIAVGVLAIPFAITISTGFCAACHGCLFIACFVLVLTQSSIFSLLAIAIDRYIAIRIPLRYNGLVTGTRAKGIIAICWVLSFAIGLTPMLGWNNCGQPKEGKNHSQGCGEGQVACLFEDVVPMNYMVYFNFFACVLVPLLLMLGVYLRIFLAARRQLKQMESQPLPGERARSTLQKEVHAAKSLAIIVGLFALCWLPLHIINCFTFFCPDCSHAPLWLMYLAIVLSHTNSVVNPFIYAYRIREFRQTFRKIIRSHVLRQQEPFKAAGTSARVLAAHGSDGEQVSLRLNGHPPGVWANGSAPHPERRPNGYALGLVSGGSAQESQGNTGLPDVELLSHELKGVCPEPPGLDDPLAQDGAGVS", "assay": "A2AAR competition binding", "settings": "for better A2AAR binding affinity than compound 1: relative to compound 1"}, "[3]": {"target": "human A2A receptors (Homo sapiens, UniProt P29274)", "sequence (P29274 whole entry)": "as above", "assay": "Functional cAMP accumulation assay with NECA", "assay_type": "cell-based", "settings": "response to agonist NECA in presence of compound; CHO cells"}, "[4]": {"tested_on": "differentiated dopaminergic neuronal-like SH-SY5Y cells", "assay": "Cell viability", "assay_type": "cell-based, human", "settings": "20 µM 6-OHDA, 24 h; resazurin"}, "[5]": {"tested_on": "MAO-B", "settings": "read-out: MAO-B IC50; cited from earlier work"}, "[6]": {"target": "A2AAR", "settings": "read-out: A2AAR Ki; cited from earlier work"}}}
{"compound": "O=C(Nc1nc2ccccc2[nH]1)c1ccccc1", "note": "[Compound 1]", "values": [{"measurement": "change in MAO-B IC50 values in the presence of detergent", "setting": "[1]", "value": "no significant changes"}]}
{"compound": "COc1cccc(CO)c1", "note": "[Compound 3k]", "values": [{"measurement": "activity at the A2AAR (in words)", "setting": "[2]", "value": "inactive"}]}
{"compound": "COc1cccc2nc(NC(=O)c3ccccc3)[nH]c12", "note": "[Compound 1b]", "values": [{"measurement": "better A2AAR binding affinity than compound 1", "setting": "[2]", "value": 5, "unit": "fold"}]}
{"compound": "COc1cccc(COC(=O)c2nn(-c3ccccc3)nc2N)c1", "note": "[Compound 3]", "values": [{"measurement": "efficacy at the A2AAR in cAMP accumulation assay", "setting": "[3]", "value": "antagonists"}]}
{"compound": "Nc1nn(-c2ccccc2)nc1C(=O)O", "note": "[Compound 3j]", "values": [{"measurement": "activity at the A2AAR (in words)", "setting": "[2]", "value": "inactive"}]}
{"compound": "O=C(Nc1nc2cccc(Cl)c2[nH]1)c1ccccc1", "note": "[Compound 1a]", "values": [{"measurement": "efficacy at the A2AAR in cAMP accumulation assay", "setting": "[3]", "value": "antagonists"}, {"measurement": "better A2AAR binding affinity than compound 1", "setting": "[2]", "value": 27, "unit": "fold"}]}
{"compound": "Cc1ccc(COC(=O)c2nn(-c3ccccc3)nc2N)cc1", "note": "[Compound 3a]", "values": [{"measurement": "change in MAO-B IC50 values in the presence of detergent", "setting": "[1]", "value": "no significant changes"}]}
{"compound": "NCCc1cc(O)c(O)cc1O", "note": "[Compound 6-OHDA, 6-hydroxydopamine]", "values": [{"measurement": "reduction in cell viability", "setting": "[4]", "value": "37 ± 1.3", "unit": "%"}]}
{"compound": "Cn1c(=O)c2c(nc(/C=C/c3cccc(Cl)c3)n2C)n(C)c1=O", "note": "[CSC, 8-(3-chlorostyryl)caffeine]", "values": [{"measurement": "IC50", "setting": "[5]", "value": 18, "unit": "nM"}, {"measurement": "Ki", "setting": "[6]", "value": 38, "unit": "nM"}]}
